# Test results reported in patent US9617258B2, “Pyrrolo[2,3-d]pyrimidinyl, pyrrolo[2,3-b]pyrazinyl and pyrrolo[2,3-d]pyridinyl acrylamides” (Pfizer Inc., priority 2013, dated 2017).
# Assay: Stability of JAK3 covalent inhibitors in human whole blood;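 also: parent compound remaining over incubation time quantified by LC-MS/MS as peak area ratio against an internal standard, using pooled K2-EDTA blood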
# Assay type: in vitro ADME
# Details: both sexes, whole blood, 37° C., read-out: Human blood stability t1/2
row,Structure (SMILES),half-life at 1 μM [h]
1,C=CC(=O)N1CCC(Nc2cnc3[nH]cc(C(=O)NC(C)(C)C)c3n2)C[C@@H]1C (mixture of isomers) [Example 340],> 6
2,"C=CC(=O)N1C[C@@H](C)C[C@@H](Nc2ncnc3[nH]ccc23)C1 (racemic) [Example 22, rac-cis-1-((3R,5S)-3-((7H-Pyrrolo[2,3-d]pyrimidin-4-yl)amino)-5-methylpiperidin-1-yl)prop-2-en-1-one]",5.78
3,"C=CC(=O)N1CC[C@H](C)[C@@H](Nc2ncnc3[nH]ccc23)C1 (racemic) [Example 50, 1-[(3R,4S)-4-methyl-3-(7H-pyrrolo[2,3-d]pyrimidin-4-ylamino)piperidin-1-yl]prop-2-en-1-one]",> 6
4,"C=CC(=O)N1C[C@H](C)C[C@@H](Nc2ncnc3[nH]ccc23)C1 (racemic) [Example 65, Rac-1-((3R,5R)-3-((7H-Pyrrolo[2,3-d]pyrimidin-4-yl)amino)-5-methylpiperidin-1-yl)prop-2-en-1-one]",4.45
5,"C=CC(=O)N1C[C@H](Nc2ncnc3[nH]ccc23)CC[C@@H]1CO (single isomer, unassigned) [Example 7]",> 5.56
6,"C=CC(=O)N1CC[C@@H]2CCN(c3ncnc4[nH]ccc34)[C@@H]2C1 (single isomer, unassigned) [Example 8]",3.2
7,"C=CC(=O)N1C[C@H](Nc2ncnc3[nH]ccc23)CC[C@@H]1CC (single isomer, unassigned) [Example 9]",> 6
8,"C=CC(=O)N1C[C@@H](C)C[C@@H](Nc2ncnc3[nH]ccc23)C1 (single isomer, unassigned) [Example 14]",> 4.18
9,"C=CC(=O)N1CCC[C@@H](Nc2ncnc3[nH]cc(Cl)c23)C1 [Example 3, (R)-1-(3-((5-chloro-7H-pyrrolo[2,3-d]pyrimidin-4-yl)amino)piperidin-1-yl)prop-2-en-1-one]",3.2
10,"C=CC(=O)N1CC[C@H](F)[C@@H](Nc2ncnc3[nH]ccc23)C1 [Example 4, 1-((3S,4S)-3-((7H-pyrrolo[2,3-d]pyrimidin-4-yl)amino)-4-fluoropiperidin-1-yl)prop-2-en-1-one]",2.33
11,"C=CC(=O)N1C[C@H](C#N)C[C@@H](Nc2ncnc3[nH]ccc23)C1 [Example 6, (3R,5R)-5-((7H-pyrrolo[2,3-d]pyrimidin-4-yl)amino)-1-acryloylpiperidine-3-carbonitrile]",4.22
12,"C=CC(=O)N1C[C@H](F)C[C@@H](Nc2ncnc3[nH]ccc23)C1 [Example 10, 1-((3R,5R)-3-((7H-pyrrolo[2,3-d]pyrimidin-4-yl)amino)-5-fluoropiperidin-1-yl)prop-2-en-1-one]",2.72
13,"C=CC(=O)N1CC[C@H](C)[C@@H](Nc2ncnc3[nH]ccc23)C1 [Example 11, 1-((3R,4S)-3-((7H-pyrrolo[2,3-d]pyrimidin-4-yl)amino)-4-methylpiperidin-1-yl)prop-2-en-1-one]",> 4.93
14,"C=CC(=O)N1CCC[C@@H](Nc2ncnc3[nH]ccc23)C1 [Example 12, (R)-1-(3-((7H-Pyrrolo[2,3-d]pyrimidin-4-yl)amino)piperidin-1-yl)prop-2-en-1-one]",> 5.53
15,C=CC(=O)N1C[C@H](Nc2ncnc3[nH]cc(CCOC)c23)CC[C@@H]1C [Example 13],5.08
16,"C=CC(=O)N1C[C@@H](F)C[C@@H](Nc2ncnc3[nH]ccc23)C1 [Example 15, 1-((3R,5S)-3-((7H-Pyrrolo[2,3-d]pyrimidin-4-yl)amino)-5-fluoropiperidin-1-yl)prop-2-en-1-one]",3.87
17,"C=CC(=O)N1C[C@@H](O)C[C@@H](Nc2ncnc3[nH]ccc23)C1 [Example 17, 1-((3R,5S)-3-(7H-Pyrrolo[2,3-d]pyrimidin-4-ylamino)-5-hydroxypiperidin-1-yl)prop-2-en-1-one]",> 5.17
18,"C=CC(=O)N1C[C@H](Nc2ncnc3[nH]cc(Cl)c23)CC[C@@H]1C [Example 18, 1-((2S,5R)-5-((5-Chloro-7H-pyrrolo[2,3-d]pyrimidin-4-yl)amino)-2-methylpiperidin-1-yl)prop-2-en-1-one]",> 5.31
